In brackets after ≈: the same amount, converted by molar mass. Activity calls are given as the source filed them. No cut-off for these calls is given here.
Tests used:
HT-1080 = experiment: cells; details: Homo sapiens, HT-1080, 72 h
RD = experiment: cells; details: Homo sapiens, 72 h
GCT = experiment: cells; details: Homo sapiens, 72 h
MCF7 = experiment: cells; details: Homo sapiens, MCF7, 72 h
[1] = Kinetic solubility of the compound in DPBS buffer at pH 7.4 incubated for 16 hrs under shaking condition by HPLC analysis; format: physicochemical; details: read-out: Kinetic_solubility
[2] = Metabolic stability in CD-1 mouse liver microsomes assessed as half life at 100 uM measured upto 60 mins in presence of NADPH by LC-MS/MS analysis; format: ADME, Microsome; details: for t1/2: mouse, microsomes, 1 h, 100 µM
[3] = Metabolic stability in CD-1 mouse liver microsomes assessed as intrinsic clearance at 100 uM measured upto 60 mins in presence of NADPH by LC-MS/MS analysis; format: ADME, Microsome; details: for microsomal intrinsic clearance: mouse, microsomes, 1 h, 100 µM
[4] = Metabolic stability in CD-1 mouse liver microsomes assessed as parent compound remaining at 100 uM measured after 60 mins in presence of NADPH by LC-MS/MS analysis; format: ADME, Microsome; details: read-out: Stability
Vimentin (Homo sapiens) [5] = biological target: Vimentin (Homo sapiens) (UniProt P08670); experiment: Induction of Vimentin phosphorylation in human HT-1080 cells at 1 uM incubated for 24 hrs by Western blot analysis; format: cell-based
Chain of Vimentin (Homo sapiens) (P08670 whole entry): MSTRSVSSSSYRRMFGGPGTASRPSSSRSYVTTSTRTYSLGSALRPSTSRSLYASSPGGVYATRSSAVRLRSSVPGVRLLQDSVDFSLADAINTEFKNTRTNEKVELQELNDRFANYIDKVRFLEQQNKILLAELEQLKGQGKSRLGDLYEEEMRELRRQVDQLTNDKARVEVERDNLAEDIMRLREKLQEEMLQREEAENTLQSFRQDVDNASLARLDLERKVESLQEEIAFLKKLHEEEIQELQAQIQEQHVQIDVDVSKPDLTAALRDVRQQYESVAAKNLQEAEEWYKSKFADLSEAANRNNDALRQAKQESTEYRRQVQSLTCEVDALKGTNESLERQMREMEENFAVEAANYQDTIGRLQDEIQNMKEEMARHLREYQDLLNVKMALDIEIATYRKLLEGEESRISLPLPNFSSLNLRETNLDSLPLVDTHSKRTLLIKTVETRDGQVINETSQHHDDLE

Vimentin (Homo sapiens) [6] = biological target: Vimentin (Homo sapiens) (UniProt P08670); experiment: Induction of Vimentin phosphorylation in human RD cells at 1 uM incubated for 24 hrs by Western blot analysis; format: cell-based
Vimentin (Homo sapiens) [7] = biological target: Vimentin (Homo sapiens) (UniProt P08670); experiment: Induction of Vimentin phosphorylation in human GCT cells at 1 uM incubated for 24 hrs by Western blot analysis; format: cell-based
[8] = AUC (0 to last) in mouse at 10 mg/kg, po by LC-MS/MS analysis; format: ADME, organism-based; parameters: dose 10 mg/kg, route po; details: in vivo
[9] = AUC (0 to last) in mouse at 1 mg/kg, ip by LC-MS/MS analysis; format: ADME, organism-based; parameters: dose 1 mg/kg, route ip; details: in vivo
[10] = AUC (0 to infinity) in mouse at 10 mg/kg, po by LC-MS/MS analysis; format: ADME, organism-based; parameters: dose 10 mg/kg, route po; details: in vivo
[11] = AUC (0 to infinity) in mouse at 1 mg/kg, ip by LC-MS/MS analysis; format: ADME, organism-based; parameters: dose 1 mg/kg, route ip; details: in vivo
[12] = Half life in mouse at 10 mg/kg, po by LC-MS/MS analysis; format: ADME, organism-based; details: in vivo
[13] = Half life in mouse at 1 mg/kg, ip by LC-MS/MS analysis; format: ADME, organism-based; details: in vivo
[14] = Tmax in mouse at 10 mg/kg, po by LC-MS/MS analysis; format: ADME, organism-based; details: in vivo
[15] = Tmax in mouse at 1 mg/kg, ip by LC-MS/MS analysis; format: ADME, organism-based; details: in vivo
[16] = Tlast in mouse at 10 mg/kg, po by LC-MS/MS analysis; format: ADME, organism-based; details: in vivo
[17] = Tlast in mouse at 1 mg/kg, ip by LC-MS/MS analysis; format: ADME, organism-based; details: in vivo
[18] = Cmax in mouse at 1 mg/kg, ip by LC-MS/MS analysis; format: ADME, organism-based; parameters: dose 1 mg/kg, route ip; details: in vivo
[19] = Cmax in mouse at 10 mg/kg, po by LC-MS/MS analysis; format: ADME, organism-based; parameters: dose 10 mg/kg, route po; details: in vivo
Vimentin (Homo sapiens) [20] = biological target: Vimentin (Homo sapiens) (UniProt P08670); experiment: Induction of Vimentin phosphorylation in human HT-1080 cells at 100 nM incubated for 24 hrs by Western blot analysis; format: cell-based; details: filed as activator
Vimentin (Homo sapiens) [21] = biological target: Vimentin (Homo sapiens) (UniProt P08670); experiment: Induction of Vimentin phosphorylation in human RD cells at 100 nM incubated for 24 hrs by Western blot analysis; format: cell-based; details: filed as activator
Vimentin (Homo sapiens) [22] = biological target: Vimentin (Homo sapiens) (UniProt P08670); experiment: Induction of Vimentin phosphorylation in human GCT cells at 100 nM incubated for 24 hrs by Western blot analysis; format: cell-based; details: filed as activator
[23] = Oral bioavailability in mouse at 10 mg/kg by LC-MS/MS analysis; format: ADME, organism-based; details: in vivo

| IC50 (HT-1080) [µM] | IC50 (RD) [µM] | IC50 (GCT) [µM] | IC50 (MCF7) [µM] | SMILES | also measured |
| --- | --- | --- | --- | --- | --- |
| 10.8 | 7.41 | 10.8 | > 20 | CC(=O)Nc1cc(Cl)cc(N2CCN(c3cnnc4c(Cl)cccc34)CC2)c1 |  |
| > 20 | > 20 | > 20 | > 20 | Clc1cc(N2CCCC2)cc(N2CCN(c3cnnc4c(Cl)cccc34)CC2)c1 |  |
| 0.378 | 0.402 | 0.189 | > 20 | N#Cc1cc(Cl)cc(N2CCN(c3cnnc4c(Cl)cccc34)CC2)c1 |  |
| 0.086 | 0.083 | 0.057 | 12.1 | Oc1cc(Cl)cc(N2CCN(c3cnnc4c(Cl)cccc34)CC2)c1 |  |
| 1.15 | 1.07 | 1.27 | > 20 | C[C@H]1CN(c2cnnc3c(Cl)cccc23)CCN1c1cc(Cl)cc(Cl)c1 |  |
| 0.5 | 0.407 | 0.667 | > 20 | OCCOc1cc(Cl)cc(N2CCN(c3cnnc4c(Cl)cccc34)CC2)c1 | solubility kinetic at 16 h [1]: 13 µM (≈ 5.45 µg/mL); t1/2 [2]: 19.1 min; microsomal intrinsic clearance [3]: 72.5 µL/min/mg; remaining at 1 h, 100 µM [4]: 10.5% |
| 0.956 | 1.28 | 0.656 | > 20 | Oc1cc(O)cc(N2CCN(c3cnnc4c(Cl)cccc34)CC2)c1 |  |
| 1.7 | 1.35 | 1.06 | > 20 | COCCOc1cc(Cl)cc(N2CCN(c3cnnc4c(Cl)cccc34)CC2)c1 | solubility kinetic at 16 h [1]: < 1 µM |
| 0.412 | 0.623 | 0.315 | > 20 | Clc1cc(Cl)cc(N2CCN(c3cnnc4c(Cl)cccc34)CC2)c1 |  |
| 0.044 | 0.061 | 0.049 | 11.2 | COc1cc(Cl)cc(N2CCN(c3cnnc4c(Cl)cccc34)CC2)c1 | AUC(0-t) [8]: 371 ng·h/mL; AUC(0-t) [9]: 208 ng·h/mL; AUC(0-inf) [10]: 534 ng·h/mL; AUC(0-inf) [11]: 211 ng·h/mL; half-life [12]: 281 min; half-life [13]: 35.4 min; Tmax [14]: 40.2 min; Tmax [15]: 15 min; Tlast [16]: 8 h; Tlast [17]: 18 h; Cmax [18]: 197 ng/mL; Cmax [19]: 155 ng/mL; Activity (Vimentin (Homo sapiens) [20]): Active; Activity (Vimentin (Homo sapiens) [21]): Active; Activity (Vimentin (Homo sapiens) [22]): Active; F [23]: 25%; t1/2 [2]: 1.7 min; microsomal intrinsic clearance [3]: 805.3 µL/min/mg; remaining at 1 h, 100 µM [4]: 0% |
| 3.89 | 4.58 | 3.55 | > 20 | NCCOc1cc(Cl)cc(N2CCN(c3cnnc4c(Cl)cccc34)CC2)c1 | solubility kinetic at 16 h [1]: 38 µM (≈ 15.9 µg/mL); t1/2 [2]: > 145 min; microsomal intrinsic clearance [3]: < 9.6 µL/min/mg; remaining at 1 h, 100 µM [4]: 78.7% |
| 0.647 | 1.32 | 0.498 | > 20 | Nc1cc(Cl)cc(N2CCN(c3cnnc4c(Cl)cccc34)CC2)c1 |  |
| 1.53 | 1.12 | 0.756 | > 20 | O=C(O)CCOc1cc(Cl)cc(N2CCN(c3cnnc4c(Cl)cccc34)CC2)c1 | solubility kinetic at 16 h [1]: > 200 µM |

The next lines start with the compound.

| SMILES | IC50 (HT-1080) [µM] | IC50 (RD) [µM] | IC50 (GCT) [µM] | IC50 (MCF7) [µM] | also measured |
| --- | --- | --- | --- | --- | --- |
| Clc1cccc(N2C[C@@H]3CN(c4cnnc5c(Cl)cccc45)C[C@@H]3C2)c1 | > 20 | > 20 | > 20 | > 20 |  |
| Clc1cccc(N2CCN(c3ccnnc3)CC2)c1 | > 20 | > 20 | > 20 | > 20 |  |
| Clc1cccc(N2CCN(c3cnnc4ccccc34)CC2)c1 | > 20 | > 20 | > 20 | > 20 |  |
| Clc1cc(OCCOC2CCCCO2)cc(N2CCN(c3cnnc4c(Cl)cccc34)CC2)c1 (configuration not stated) | > 20 | > 20 | > 20 | > 20 | solubility kinetic at 16 h [1]: < 1 µM |
| Clc1cccc(N2CCCN(c3cnnc4c(Cl)cccc34)CC2)c1 | > 20 | > 20 | > 20 | > 20 |  |
| Clc1cccc(N2C[C@H]3CC[C@@H](C2)N3c2cnnc3c(Cl)cccc23)c1 | 5.57 | 6.15 | 4.03 | > 20 |  |
| OC(O)COc1cc(Cl)cc(N2CCN(c3cnnc4c(Cl)cccc34)CC2)c1 |  |  |  |  | half-life at 100 µM ([2]; CD-1, mouse, liver microsomes): 42.7 min; microsomal CLint at 100 µM ([3]; CD-1, mouse, liver microsomes, read-out: CLH): 32.5 µL/min/mg; remaining at 1 h, 100 µM [4]: 35.7% |
| CN(C)CCCOc1cc(Cl)cc(N2CCN(c3cnnc4c(Cl)cccc34)CC2)c1 | 2.72 | 3.69 |  | 4.56 | solubility kinetic at 16 h [1]: 48 µM (≈ 22.1 µg/mL) |
| COc1cc(OC)cc(N2CCN(c3cnnc4c(Cl)cccc34)CC2)c1 | 0.037 | 0.033 | 0.033 | 15.5 | t1/2 [2]: 2.1 min; microsomal intrinsic clearance [3]: 657.4 µL/min/mg; remaining at 1 h, 100 µM [4]: 0.1% |
| Clc1cccc(N2CC3CC2CN3c2cnnc3c(Cl)cccc23)c1 (configuration not stated) | 3.23 | 5.6 | 8.86 | > 20 |  |
| CN(C)CCOc1cc(Cl)cc(N2CCN(c3cnnc4c(Cl)cccc34)CC2)c1 | 4.72 | 7.02 | 6.49 | 16 | solubility kinetic at 16 h [1]: 131 µM (≈ 58.5 µg/mL) |
| COc1cccc(N2CCN(c3cnnc4c(Cl)cccc34)CC2)c1 | 0.598 | 0.884 | 0.402 | > 20 |  |
| COC(COc1cc(Cl)cc(N2CCN(c3cnnc4c(Cl)cccc34)CC2)c1)OC |  | 19.1 | 2.93 | > 20 | solubility kinetic at 16 h [1]: < 1 µM |
| Clc1cccc(N2CCN(c3ncnc4ccccc34)CC2)c1 | > 20 | > 20 | > 20 | > 20 |  |
| Clc1cccc(N2CCN(c3ccnc4c(Cl)cccc34)CC2)c1 | > 20 | > 20 | > 20 | > 20 | Activity (Vimentin (Homo sapiens) [5]): inactive; Activity (Vimentin (Homo sapiens) [6]): inactive; Activity (Vimentin (Homo sapiens) [7]): inactive |
| Clc1cccc(N2CCN(c3ccnc4ccccc34)CC2)c1 | > 20 | > 20 | > 20 | > 20 |  |
| Clc1cccc(N2CCN(c3cc(-c4ccccc4)ncn3)CC2)c1 | > 20 | > 20 | > 20 | > 20 |  |
| Fc1c(Cl)cc(N2CCN(c3cnnc4c(Cl)cccc34)CC2)cc1Cl |  |  |  |  | t1/2 [2]: 32.5 min; microsomal intrinsic clearance [3]: 42.6 µL/min/mg; remaining at 1 h, 100 µM [4]: 29.6% |
| COC(=O)CCOc1cc(Cl)cc(N2CCN(c3cnnc4c(Cl)cccc34)CC2)c1 | 0.979 | 1.12 | 1 | > 20 | solubility kinetic at 16 h [1]: 82 µM (≈ 37.8 µg/mL); t1/2 [2]: 35.5 min; microsomal intrinsic clearance [3]: 39 µL/min/mg; remaining at 1 h, 100 µM [4]: 28.9% |
| COc1cccc2c(N3CCN(c4cccc(Cl)c4)CC3)cnnc12 | > 20 | > 20 | > 20 | > 20 |  |
| Fc1ccc(N2CCN(c3cnnc4c(Cl)cccc34)CC2)cc1Cl |  |  |  |  | t1/2 [2]: 6.7 min; microsomal intrinsic clearance [3]: 205.8 µL/min/mg; remaining at 1 h, 100 µM [4]: 0.4% |
| Clc1cccc(C2CCN(c3cnnc4c(Cl)cccc34)CC2)c1 | > 20 | > 20 | > 20 | > 20 |  |
| COc1ccc2c(N3CCN(c4cccc(Cl)c4)CC3)cnnc2c1Cl | > 20 | > 20 | > 20 | > 20 |  |
| Clc1cc(OCCN2CCOCC2)cc(N2CCN(c3cnnc4c(Cl)cccc34)CC2)c1 | > 20 | > 20 | > 20 | > 20 | solubility kinetic at 16 h [1]: < 1 µM |

— ChEMBL document CHEMBL5352396, “Synthesis and biological evaluation of novel FiVe1 derivatives as potent and selective agents for the treatment of mesenchymal cancers” (Eur J Med Chem, 2022)
